Test [1] has as its system diabetic ulcer (non-healing wound). In words: Case studies: powdered wound composition applied topically to infected non-healing wounds / diabetic ulcers of patients. The class given is in vivo, human. From the text:
Thereafter, the wound compositions may be applied to the wound at least once a week until such time as the wound is satisfactorily healed. In one embodiment, a wound composition is applied once a week (after the initial daily application) for a period of at least seven weeks. It is understood that prior to each application, the wound may be rinsed with a sterile solution, such as saline, and allowed to dry. Thereafter, a wound composition may be applied and the wound wrapped in a suitable dressing.
A treatment plan was established for the patient. Under the treatment plan, the patient received: 1) Insulin 70/30 (Novoline) 50 IU morning, 25 IU night; and 2) intravenueously, Co-Amoxiclav 1.2 g+Gentamicin 80 mg+Metronidazole 400 mg in 100 ml N Saline/30 min (every 8 hours). After the injection of the intravenous antibiotics, the patient began taking oral antibiotics: 1) Co-Amoxiclav 625 mg (2 tablets) (twice daily); 2) Ciprofloxacin 500 mg once daily for 2 weeks; and 3) Ibuprofen 600 mg for 5 days (every 8 hours). Thereafter, the wound was cleaned with saline solution. A wound composition comprising a mixture of 300 mg powdered phenyloin (Dilantin®) and 500 mg of powdered Vitamin C was administered over the wound and the wound was dressed. The patient was advised to come back on a daily basis for dressing of the wound and reapplication of the wound composition.
The patient returned for 9 consecutive visits over the next nine days. Thereafter, the patient began weekly visits. With each visit, the wound was cleaned with saline solution and the powdered wound composition was applied topically to the wound, and redressed.
A treatment plan was established for the patient. Under the treatment plan, the patient received: 1) Insulin 70/30 (Novoline) 40 IU morning, 20IU night; and 2) intravenueously, Co-Amoxiclav 1.2 g+Gentamicin 80 mg+Metronidazole 400 mg in 100 ml N Saline/30 min. every 8 hours. After the injection of the intravenous antibiotics, the patient began taking oral antibiotics: 1) Co-Amoxiclav 625 mg (2 tablets) twice daily 2) Ciprofloxacin 500 mg once daily for 2 weeks; and 3) Ibuprofen 600 mg every 8 hours.; and (4) Co-diovan tablets (valsartan and hydrochlorothiazide) 80 mg/12.5 mg daily. Thereafter, the wound was cleaned with saline solution. A wound composition comprising 300 mg powdered phenyloin (Dilantin®) was administered over the wound and the wound was dressed. The patient was advised to come back on a daily basis for dressing of the wound and reapplication of the wound composition.
The patient returned for 9 consecutive visits over the next nine days. Thereafter, the patient began weekly visits. With each visit, the wound was cleaned with saline solution and the powdered wound composition was applied topically to the wound, and redressed. […] No further treatment was prescribed to the patient.

The subject of the next test is diabetic ulcers. The settings on record: patients with diabetic ulcers; control group 45 days; cited from earlier work.
[2] abbreviates: one patient per Example, topical, weekly application, week 8.

Structures are written as SMILES. Where “and” joins values, the source holds several entries; their conditions need not be identical. Equal values may be shown once. Entries after “also recorded” stand apart in the source; their conditions may differ.

As to `O=C1NC(=O)C(c2ccccc2)(c2ccccc2)N1` [phenyloin, 5.5-diphenyl-2,4-imidazolidinedione], the “portion of the wound healed” value in test [1] (Example 16 patient, topical, weekly application, week 13) was “approximately 60%”; in test [1] (setting [2]) it was “approximately 35%; also recorded: approximately 25%”; in test [1] (one patient per Example, topical, weekly application, week 9) it was “approximately 40%”; in test [1] (one patient per Example, topical, weekly application, week 10), “approximately 60%”. Besides, the “appearance of the wound” value in test [1] (Example 16 patient, topical, weekly application, weeks 3-5) is “continued to appear generally healthy”; in test [1] (one patient per Example, topical, weekly application, weeks 2-4), “continued to appear generally healthy”. In test [1] (one patient per Example, Dilantin alone), the “recurrence of the wound after healing” value is on record as “the wound returned in substantially the same location; also recorded: the wound returned in approximately the same location”. Further, the “time the wound took to heal completely” value in test [1] (one patient per Example, Dilantin alone, topical) was “approximately 20 weeks and ~27 weeks and ~22 weeks and approximately 25 weeks”. Moreover, the amputation outcome in test [1] (one patient per Example, after treatment course) is given as “need to amputate the right leg below the knee; also recorded: need to amputate the left leg below the knee”. Besides, in test [1] (one patient per Example, topical, daily visits for 9 days then weekly, week 1), the “new skin formation (wound healing by secondary intention)” value is “signs of new skin formation”. Further, the granulation tissue formed result in test [1] (setting [2]) was “approximately 20%”. For the same compound, in test [1] (one patient per Example, topical, weekly application, weeks 5-7), the “healing of the wound as noted” value is on record as “beginning to heal very well, but was very slow healing”. Moreover, in the test with diabetic ulcers, the mean healing time is on record as 21 days.

(Values after patent publication US20150010651A1, “Compositions and methods for the treatment of wounds” (priority 2009, published 2015).)
